Test results from US8957108B2, “Use of 5,6-dimethylxanthenone-4-acetic acid as an antiviral agent” (University of Maryland, Baltimore, priority 2006, dated 2015).

System: C57BL/6J macrophages
[1] = DMXAA 3 h vs unstimulated wild-type cells
[2] = ratio of fold change, wild-type vs IFN-β-deficient cells

In the case of `Cc1ccc2c(=O)c3cccc(CC(=O)O)c3oc2c1C` [DMXAA, 5,6-dimethylxanthenone-4-acetic acid], the “ZBP1 Fold Change: BL/6” value [1] is reported as 15.4 fold, the “ZNF313 Fold Change: BL/6” value [1] is reported as 3.2 fold and the “number of modulated genes that are IFN-β-dependent” value (of the 136 genes, 3-fold difference wild-type vs IFN-β−/−) is reported as 77 genes. The “number of genes with ≧3-fold change in expression” value (of ˜14,000 genes analyzed, 3 h, vs medium-treated cells) was 136 genes, the “2310043N10RIK WT/KO” value [2] was 3.2 and the “5830484A20RIK WT/KO” value [2] was 1.4. The “ABCB1 WT/KO” value [2] was 1.1, the “ABL1 WT/KO” value [2] was 5.6 and the “ABLIM1 WT/KO” value [2] was 7.1. The “ACVR1B WT/KO” value [2] was 1.9, the “ADRB2 WT/KO” value [2] was 1.9 and the “AFTIPHILIN WT/KO” value [2] was 3.0. For the same compound, the “AKAP12 WT/KO” value [2] was 2.2, the “AMPD3 WT/KO” value [2] was 1.5 and the “AP2A2 WT/KO” value [2] was 1.1. For the same compound, the “APBB1IP WT/KO” value [2] was 2.2, the “APOBEC3F WT/KO” value [2] was 2.5 and the “ARHGEF3 WT/KO” value [2] was 2.1. For the same compound, the “ARID3A WT/KO” value [2] was 1.6, the “ARL4C WT/KO” value [2] was 1.0 and the “ASF1A WT/KO” value [2] was 1.8. For the same compound, the “ATRX WT/KO” value [2] was 1.6, the “B3GAT3 WT/KO” value [2] was 5.5 and the “BACE1 WT/KO” value [2] was 3.2. For the same compound, the “BAMBI WT/KO” value [2] was 2.7, the “BCL2L1 WT/KO” value [2] was 6.0 and the “BCL2 WT/KO” value [2] was 5.4. For the same compound, the “BHLHB2 WT/KO” value [2] was 3.0, the “BID WT/KO” value [2] was 1.1 and the “C8ORF4 WT/KO” value [2] was 8.7. For the same compound, the “C9ORF26 WT/KO” value [2] was 2.1, the “CCL2 WT/KO” value [2] was 21.7 and the “CCL3 WT/KO” value [2] was 4.1. For the same compound, the “CCL4 WT/KO” value [2] was 1.9, the “CCL5 WT/KO” value [2] was 1.4 and the “CCL7 WT/KO” value [2] was 3.2. For the same compound, the “CCL13 WT/KO” value [2] was 2.9, the “CCND2 WT/KO” value [2] was 3.2 and the “CCNE1 WT/KO” value [2] was 1.1. The “CCNF WT/KO” value [2] was 4.4, the “CCRN4L WT/KO” value [2] was 3.6 and the “CD37 WT/KO” value [2] was 4.7. The “CD40 WT/KO” value [2] was 7.9, the “CD86 WT/KO” value [2] was 1.8 and the “CD274 WT/KO” value [2] was 5.9. For the same compound, the “CDC6 WT/KO” value [2] was 1.2, the “CDC7 WT/KO” value [2] was 2.2 and the “CDC37L1 WT/KO” value [2] was 1.7. The “CDKN1A WT/KO” value [2] was 2.7, the “CEBPB WT/KO” value [2] was 1.7 and the “CITED2 WT/KO” value [2] was 4.6. For the same compound, the “CLCA1 WT/KO” value [2] was 2.5, the “CNR2 WT/KO” value [2] was 4.0 and the “CREBBP WT/KO” value [2] was 0.7. For the same compound, the “CXCL10 WT/KO” value [2] was 3.3, the “DAXX WT/KO” value [2] was 4.9 and the “DSCR1 WT/KO” value [2] was 1.3. For the same compound, the “FGD6 WT/KO” value [2] was 1.5, the “FGL2 WT/KO” value [2] was 2.9 and the “GBP2 WT/KO” value [2] was 3.1. For the same compound, the “GBP4 WT/KO” value [2] was 1.6, the “GBP6 WT/KO” value [2] was 1.6 and the “GYPC WT/KO” value [2] was 1.3. The “IFI16 WT/KO” value [2] was 1.6, the “IFI35 WT/KO” value [2] was 3.3 and the “IFI203 WT/KO” value [2] was 6.4. For the same compound, the “IFI205 WT/KO” value [2] was 3.5, the “IFIH1 WT/KO” value [2] was 1.4 and the “IFIT1 WT/KO” value [2] was 1.5. For the same compound, the “IFIT2 WT/KO” value [2] was 1.9, the “IFIT3 WT/KO” value [2] was 3.1 and the “IFNA5 WT/KO” value [2] was 12.9. The “IFNA6 WT/KO” value [2] was 8.6, the “IFNB1 WT/KO” value [2] was 178.6 and the “IFNG WT/KO” value [2] was 0.8. For the same compound, the “IGTP WT/KO” value [2] was 11.2, the “IIGP1 WT/KO” value [2] was 18.7 and the “IL6 WT/KO” value [2] was 41.8. The “IL12B WT/KO” value [2] was 3.2, the “IL15RA WT/KO” value [2] was 4.5 and the “IL15 WT/KO” value [2] was 4.3. The “IRF1 WT/KO” value [2] was 5.9, the “IRF2 WT/KO” value [2] was 3.5 and the “IRGM WT/KO” value [2] was 2.9. The “ISG20 WT/KO” value [2] was 6.1, the “KATNA1 WT/KO” value [2] was 2.1 and the “LGP2 WT/KO” value [2] was 2.4. For the same compound, the “LHX2 WT/KO” value [2] was 11.9, the “LOC129607 WT/KO” value [2] was 7.6 and the “MAFK WT/KO” value [2] was 3.0. The “MARCH5 WT/KO” value [2] was 2.5, the “MOV10 WT/KO” value [2] was 3.4 and the “MX1 WT/KO” value [2] was 20.7. For the same compound, the “MX2 WT/KO” value [2] was 74.3, the “NMI WT/KO” value [2] was 2.9 and the “NP WT/KO” value [2] was 2.5. For the same compound, the “NT5C3 WT/KO” value [2] was 3.6, the “OAS1B WT/KO” value [2] was 6.2 and the “OASL WT/KO” value [2] was 1.8. The “P4HA1 WT/KO” value [2] was 1.2, the “P8 WT/KO” value [2] was 2.9 and the “PARP9 WT/KO” value [2] was 2.8. For the same compound, the “PELI1 WT/KO” value [2] was 1.4, the “PGF WT/KO” value [2] was 1.3 and the “PLAU WT/KO” value [2] was 1.7. The “PPP1R15A WT/KO” value [2] was 3.4, the “PTX3 WT/KO” value [2] was 4.0 and the “PVRL2 WT/KO” value [2] was 2.1. For the same compound, the “PVRL4 WT/KO” value [2] was 2.1, the “REL WT/KO” value [2] was 2.8 and the “RGC32 WT/KO” value [2] was 2.9. For the same compound, the “RIPK2 WT/KO” value [2] was 2.5, the “RSAD2 WT/KO” value [2] was 2.0 and the “SAP30 WT/KO” value [2] was 2.4. For the same compound, the “SAV1 WT/KO” value [2] was 1.2, the “SDC4 WT/KO” value [2] was 1.2 and the “SECTM1 WT/KO” value [2] was 15.0. The “SLC7A2 WT/KO” value [2] was 2.0, the “SOAT1 WT/KO” value [2] was 1.8 and the “SOCS1 WT/KO” value [2] was 16.7. The “STAT2 WT/KO” value [2] was 2.3, the “TGTP WT/KO” value [2] was 38.6 and the “TLK2 WT/KO” value [2] was 3.0. For the same compound, the “TLR3 WT/KO” value [2] was 6.8, the “TMOD3 WT/KO” value [2] was 1.5 and the “TNF WT/KO” value [2] was 5.0. For the same compound, the “TNFRSF11B WT/KO” value [2] was 0.9, the “TNFSF9 WT/KO” value [2] was 3.0 and the “TOR1AIP1 WT/KO” value [2] was 2.4. The “TPST1 WT/KO” value [2] was 1.1, the “TREX1 WT/KO” value [2] was 2.0 and the “TRIM21 WT/KO” value [2] was 3.2. The “TRIM25 WT/KO” value [2] was 1.8, the “TRIM34 WT/KO” value [2] was 1.7 and the “USP18 WT/KO” value [2] was 11.4. The “VCAM1 WT/KO” value [2] was 2.1, the “ZBP1 WT/KO” value [2] was 3.7 and the “ZNF313 WT/KO” value [2] was 2.1.
